Columns and labels:
[1] = target: recombinant human SGK-1 enzyme (Homo sapiens, UniProt O00141); assay: Enzymatic activity assay: SGK-1 substrate peptide phosphorylation (Caliper lab-chip mobility shift); format: biochemical; details: peptide substrate 1 μM, ATP 10 μM, 60 min at 37° C., read-out: IC50 values for inhibition of SGK-1 enzymatic activity
[2] = system: SGK-1 dependent phosphorylation of GSK3beta in U2OS cells; assay: SGK-1 dependent phosphorylation of GSK3beta in U2OS cells overexpressing recombinant SGK-1 and GSK3beta; format: cell-based, human; details: U2OS cells, 6 h incubation, ratio of phosphorylated GSK3beta to total GSK3beta; read-out: IC50 values for inhibition of SGK-1 dependent phosphorylation of GSK3beta in U2OS cells

Sequence of recombinant human SGK-1 enzyme (O00141 whole entry, looked up): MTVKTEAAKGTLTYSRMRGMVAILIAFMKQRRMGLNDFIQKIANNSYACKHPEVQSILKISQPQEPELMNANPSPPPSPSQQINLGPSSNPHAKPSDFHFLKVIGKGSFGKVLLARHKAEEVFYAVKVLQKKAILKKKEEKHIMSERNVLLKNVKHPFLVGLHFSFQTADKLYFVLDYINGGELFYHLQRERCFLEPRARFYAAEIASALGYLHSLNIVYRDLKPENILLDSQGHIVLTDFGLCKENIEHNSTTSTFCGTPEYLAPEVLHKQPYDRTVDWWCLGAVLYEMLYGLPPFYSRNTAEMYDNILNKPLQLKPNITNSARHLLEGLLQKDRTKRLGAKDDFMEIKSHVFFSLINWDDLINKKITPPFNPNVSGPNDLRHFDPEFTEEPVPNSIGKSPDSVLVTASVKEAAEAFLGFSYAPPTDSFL

Compound | IC50 [1] [nM] | IC50 [2] [nM]
COc1ccc(Cl)c(S(=O)(=O)Nc2ccc(-c3nc(OC)c4cn[nH]c4n3)cc2)c1 [Example 143] | 10 | 100
COc1ccc(F)c(S(=O)(=O)Nc2ccc(-c3nc(OC)c4cn[nH]c4n3)cc2)c1 [Example 144] | 3.5 | 55
Cc1ccc(C#N)c(S(=O)(=O)Nc2ccc(-c3nc(C4CC4)c4cn[nH]c4n3)cc2)c1 [Example 145] | 4.1 | 350
Cc1ccc(C#N)c(S(=O)(=O)Nc2ccc(-c3nc(CCCCl)c4cn[nH]c4n3)cc2)c1 [Example 146] | 47 | 11000
COc1ccc(F)c(S(=O)(=O)Nc2ccc(-c3nc(C4CC4)c4cn[nH]c4n3)cc2)c1 [Example 147] | 1.5 | 59
Cc1nc(-c2ccc(NS(=O)(=O)c3ccc(F)cc3Cl)cc2)nc2[nH]nc(N)c12 [Example 164] | 40 | 600
Cc1nc(-c2ccc(NS(=O)(=O)c3cc(F)c(F)c(F)c3)cc2)nc2[nH]nc(N)c12 [Example 165] | 110 | 970
Cc1nc(-c2ccc(NS(=O)(=O)c3ccccc3F)cc2)nc2[nH]nc(N)c12 [Example 169] | 110 | 250
Cc1nc(-c2ccc(NS(=O)(=O)c3cc(F)c(F)cc3Cl)cc2)nc2[nH]nc(N)c12 [Example 170] | 54 | 510
Cc1nc(-c2ccc(NS(=O)(=O)c3cccc(Cl)c3F)cc2)nc2[nH]nc(N)c12 [Example 171] | 40 | 870
Cc1nc(-c2ccc(NS(=O)(=O)C3=CSCC=C3Br)cc2)nc2[nH]nc(N)c12 [Example 173] | 330 | 600
Cc1nc(-c2ccc(NS(=O)(=O)C3=C(Cl)SCC(Cl)=C3)cc2)nc2[nH]nc(N)c12 [Example 175] | 19 | 520
COc1nc(-c2ccc(NS(=O)(=O)c3cc(Cl)cc(F)c3F)cc2)nc2[nH]ncc12 [Example 178] | 350 | 800
Cc1ccc(C#N)c(S(=O)(=O)Nc2ccc(-c3nc(OC4CNC4)c4cn[nH]c4n3)cc2)c1 [Example 188] | 3.4 | 900
O=S(=O)(Nc1ccc(-c2nc(OC3CNC3)c3cn[nH]c3n2)cc1)c1cc(Cl)ccc1Cl [Example 190] | 4.7 | 120
N#Cc1ccc(Cl)cc1S(=O)(=O)Nc1ccc(-c2nc(OC3CNC3)c3cn[nH]c3n2)cc1 [Example 191] | 21 | 2700
COc1ccc(F)c(S(=O)(=O)Nc2ccc(-c3nc(OC4CNC4)c4cn[nH]c4n3)cc2)c1 [Example 192] | 2.8 | 140
Cc1ccc(C#N)c(S(=O)(=O)Nc2ccc(-c3nc(OCC(F)(F)F)c4c(N)n[nH]c4n3)cc2)c1 [Example 193] | 2 | 160
COc1ccc(Cl)c(S(=O)(=O)Nc2ccc(-c3nc(OCC(F)(F)F)c4c(N)n[nH]c4n3)cc2)c1 [Example 194] | 2.3 | 100
Nc1n[nH]c2nc(-c3ccc(NS(=O)(=O)c4cc(Cl)ccc4Cl)cc3)nc(OCC(F)(F)F)c12 [Example 195] | 5.4 | 210
N#Cc1ccc(Cl)cc1S(=O)(=O)Nc1ccc(-c2nc(OCC(F)(F)F)c3c(N)n[nH]c3n2)cc1 [Example 196] | 4.6 | 330
COc1ccc(F)c(S(=O)(=O)Nc2ccc(-c3nc(OCC(F)(F)F)c4c(N)n[nH]c4n3)cc2)c1 [Example 197] | 3 | 65
O=S(=O)(Nc1ccc(-c2nc(OCC3CNC3)c3cn[nH]c3n2)cc1)c1cc(Cl)ccc1F [Example 198] | < 1.5 | 510

Compound | IC50 [1] [nM] | IC50 [2] [nM]
NCCCOc1nc(-c2ccc(NS(=O)(=O)c3cc(F)ccc3F)cc2)nc2[nH]ncc12 [Example 199] | 26 | 640
COc1ccc(Cl)c(S(=O)(=O)Nc2ccc(-c3nc(OCCCN)c4cn[nH]c4n3)cc2)c1 [Example 203] | < 1.5 | 160
Cc1ccc(F)c(S(=O)(=O)Nc2ccc(-c3nc(OCCCN)c4cn[nH]c4n3)cc2)c1 [Example 204] | < 1.5 | 130
Cc1ccc(F)c(S(=O)(=O)Nc2ccc(-c3nc(OCCCN)c4c(C)n[nH]c4n3)cc2)c1 [Example 207] | < 1.5 | 140
Cc1n[nH]c2nc(-c3ccc(NS(=O)(=O)c4cc(Cl)ccc4F)cc3)nc(OCCCN)c12 [Example 209] | < 1.5 | 100
Cc1n[nH]c2nc(-c3ccc(NS(=O)(=O)c4cc(Cl)ccc4Cl)cc3)nc(OCCCN)c12 [Example 210] | < 1.5 | 98
Cc1n[nH]c2nc(-c3ccc(NS(=O)(=O)c4ccccc4F)cc3)nc(OCCCN)c12 [Example 211] | 2.3 | 80
COc1ccc(Cl)c(S(=O)(=O)Nc2ccc(-c3nc(OCCCN)c4c(C)n[nH]c4n3)cc2)c1 [Example 212] | < 1.5 | 110
Cc1ccc(C#N)c(S(=O)(=O)Nc2ccc(-c3nc(OCCCN)c4c(C)n[nH]c4n3)cc2)c1 [Example 213] | 6.4 | 190
Cc1n[nH]c2nc(-c3ccc(NS(=O)(=O)c4cc(Cl)ccc4Cl)cc3)nc(OC3CCC(O)CC3)c12 (stereo not drawn) [Example 214] | 69 | 130
Cc1n[nH]c2nc(-c3ccc(NS(=O)(=O)c4cc(F)ccc4F)cc3)nc(OC3CCC(O)CC3)c12 (stereo not drawn) [Example 217] | 9.1 | 190
COc1ccc(F)c(S(=O)(=O)Nc2ccc(-c3nc(OCCCN)c4cn[nH]c4n3)cc2)c1 [Example 219] | < 1.5 | 230
Cc1n[nH]c2nc(-c3ccc(NS(=O)(=O)c4cc(Cl)ccc4C#N)cc3)nc(OCCCN)c12 [Example 220] | < 1.5 | 170
Cc1ccc(F)c(S(=O)(=O)Nc2ccc(-c3nc(OCC4CNCCO4)c4c(C)n[nH]c4n3)cc2)c1 (stereo not drawn) [Example 288] | 2.3 | 61
Cc1n[nH]c2nc(-c3ccc(NS(=O)(=O)c4ccccc4F)cc3)nc(OCC3CNCCO3)c12 (stereo not drawn) [Example 289] | 23 | 200
COc1ccc(Cl)c(S(=O)(=O)Nc2ccc(-c3nc(OCC4CNCCO4)c4c(C)n[nH]c4n3)cc2)c1 (stereo not drawn) [Example 290] | 3.3 | 15
Cc1n[nH]c2nc(-c3ccc(NS(=O)(=O)c4cc(Cl)ccc4F)cc3)nc(OCC3CNCCO3)c12 (stereo not drawn) [Example 291] | 2.5 | 76
Cc1n[nH]c2nc(-c3ccc(NS(=O)(=O)c4cc(F)ccc4F)cc3)nc(OCC3CNCCO3)c12 (stereo not drawn) [Example 292] | 14 | 930
Cc1ccc(C#N)c(S(=O)(=O)Nc2ccc(-c3nc(OCC4CNCCO4)c4c(C)n[nH]c4n3)cc2)c1 (stereo not drawn) [Example 293] | 3.2 | 630
COc1ccc(F)c(S(=O)(=O)Nc2ccc(-c3nc(OC4CCCNC4)c4c(C)n[nH]c4n3)cc2)c1 (stereo not drawn) [Example 294] | 3.5 | 270
COc1ccc(F)c(S(=O)(=O)Nc2ccc(-c3nc(OCC4CNCCO4)c4c(C)n[nH]c4n3)cc2)c1 (stereo not drawn) [Example 295] | 2.6 | 25
Cc1n[nH]c2nc(-c3ccc(NS(=O)(=O)c4cc(F)ccc4F)cc3)nc(OC3CCNCC3F)c12 (stereo not drawn) [Example 296] | 2.7 | 60

Reference: patent US9718825B2, “N-(4-(azaindazol-6-yl)-phenyl)-sulfonamides and their use as pharmaceuticals” (priority 2013, dated 2017)
